Source: patent US20220105051A1, “COMPOUNDS FOR INCREASING MHC-I EXPRESSION AND MODULATING HISTONE DEACETYLASE ACTIVITY” (Cava Healthcare Inc., priority 2019, published 2022)
Entries after “also recorded” stand apart in the source; their conditions may differ.

Columns and labels:
HDAC8 = target: T1, HDAC8 (Homo sapiens, UniProt Q9BY41); assay: Individualized HDAC assay, HDAC8; assay type: biochemical; settings: purified enzyme; for concentration at which HDAC8 inhibition was seen: 5 to 0.02 μM tested; for HDAC8 activity at higher concentrations: up to 5 μM
T1 construct: purchased BPS Biosciences
T1 sequence (Q9BY41 1-377): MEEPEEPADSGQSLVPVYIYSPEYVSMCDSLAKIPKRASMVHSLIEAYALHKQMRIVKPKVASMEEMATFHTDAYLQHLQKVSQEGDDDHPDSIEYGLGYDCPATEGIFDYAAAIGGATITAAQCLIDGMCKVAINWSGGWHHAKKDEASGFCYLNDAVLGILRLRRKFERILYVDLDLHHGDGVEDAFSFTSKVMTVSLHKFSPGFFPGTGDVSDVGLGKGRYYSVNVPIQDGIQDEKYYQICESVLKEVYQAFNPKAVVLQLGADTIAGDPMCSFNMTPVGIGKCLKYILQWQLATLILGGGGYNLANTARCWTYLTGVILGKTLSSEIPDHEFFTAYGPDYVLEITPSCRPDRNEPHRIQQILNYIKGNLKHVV
Procedure: The activity of the curcuphenol analogues was assessed with purified HDAC enzymes from all classes I, II, and IV, as well as a select member of HDAC class III (SIRT1). HDACs 1-9 and SIRT1 were evaluated using HDAC Fluorogenic Assay Kits (BPS Biosciences). All assays were completed in black-sided clear-bottom 96 well plates (PerkinElmer), and all treatments were plated in triplicates. Treatment started at 5 μM and was two-fold diluted to a concentration 0.02 μM. The assays were measured using the Synergy HI hybrid reader (BioTek) and Gen5 software (BioTek), excitation was set to 360 nm and detection was measured at 450 nm with a gain of 100. Alternatively HDAC 10 and 11 (BPS Biosciences) were optimized for HDAC concentration using the HDAC-Glo™ I/II Assay and Screening System (Promega). Following optimization each HDAC was run following the Promega protocol in black-sided clear-bottomed 96 well plates in triplicates with same treatments listed above (PerkinElmer). Luminescence was read 30 minutes after HDAC-Glo™I/II reagent was added using the Synergy HI hybrid reader (BioTek) and Gen5 software (Bio-Tek). […] To calculate percent activity, the average of blank wells was subtracted from all treatment groups. The relative mean of activity of the HDAC being measured was determined and all wells that received treatment were divided this average, to give a percentage of activity.
To evaluate the effect of the compounds on specific HDACs, their activity was assessed with purified HDAC enzymes from all classes I, II, and IV, as well as a select member of HDAC class III (SIRT1). HDACs 1-9 and SIRT1 were evaluated using HDAC Fluorogenic Assay Kits (BPS Biosciences) following the manufacturer's recommendations. Compound treatment started at 5 μM and was two-fold diluted to a concentration 0.02 μM. Alternatively, HDAC 10 and 11 assays (BPS Biosciences) were optimized to be used with the HDAC-Glo™ I/II Assay and Screening System (Promega). The assays were measured using the Synergy HI hybrid reader (BioTek) and Gen5 software (Bio-Tek). […] To calculate the fold change in HDAC activity, the values from each treated well were divided by the relative mean of activity of the specific HDAC being measured.

HDAC2 = target: T2, HDAC2 (Homo sapiens, UniProt Q92769); assay: Individualized HDAC assay, HDAC2; assay type: biochemical; settings: purified enzyme, 5 to 0.02 μM
T2 construct: purchased BPS Biosciences
Procedure: The activity of the curcuphenol analogues was assessed with purified HDAC enzymes from all classes I, II, and IV, as well as a select member of HDAC class III (SIRT1). HDACs 1-9 and SIRT1 were evaluated using HDAC Fluorogenic Assay Kits (BPS Biosciences). All assays were completed in black-sided clear-bottom 96 well plates (PerkinElmer), and all treatments were plated in triplicates. Treatment started at 5 μM and was two-fold diluted to a concentration 0.02 μM. The assays were measured using the Synergy HI hybrid reader (BioTek) and Gen5 software (BioTek), excitation was set to 360 nm and detection was measured at 450 nm with a gain of 100. […] Luminescence was read 30 minutes after HDAC-Glo™I/II reagent was added using the Synergy HI hybrid reader (BioTek) and Gen5 software (Bio-Tek). […] The relative mean of activity of the HDAC being measured was determined and all wells that received treatment were divided this average, to give a percentage of activity.
To evaluate the effect of the compounds on specific HDACs, their activity was assessed with purified HDAC enzymes from all classes I, II, and IV, as well as a select member of HDAC class III (SIRT1). HDACs 1-9 and SIRT1 were evaluated using HDAC Fluorogenic Assay Kits (BPS Biosciences) following the manufacturer's recommendations. […] The assays were measured using the Synergy HI hybrid reader (BioTek) and Gen5 software (Bio-Tek). […]

[1] = Pharmacokinetics in mouse plasma; assay type: in vivo; settings: 5.2 mg/kg i.p.; for half-life in mouse plasma: Example 3; for half-life / concentration at 5 min: female; for half-life: C57BL/6, ip, mouse plasma, Example 1; for concentration at 5 min: C57BL/6, mouse, plasma, intraperitoneal, read-out: concentration in mouse plasma after 5 minutes
Excerpt: To assess the pharmacokinetics (PK) of the curcuphenol analogues, a mass spectrometry assay was developed to measure the compounds in plasma. This assay was created by The Metabolomics Innovation Center (TMIC) at UVic-Genome BC Proteomics Centre located in Victoria, British Columbia. Eight samples were sent to TMIC for PK design for identification of P02-113 and P03-97-1 in mouse plasma. To collect plasma, mice were anesthetized using isoflurane and blood was collected by cardiac puncture. Plasma was isolated from blood in a potassium-EDTA coated Tube with K2E (BD Microtainer) and centrifugation at 10,000×g for 1 minute. Plasma was transferred to a cryovial and stored at −20° C. before being shipped on dry ice. TMIC used a chemical derivatization—UPLC-MMR/MS method to create a quantitative analysis tool for the compounds using dansyl chloride (DAN.CI) as the derivatizing reagent. 13C-labeled DAN.CI was used to produce stable isotope-labeled internal standards (ISs). All tests were performed using an UPLC-4000 QTRAP system with ESI and (+) ion detection using C18 column and acetonitrile-water-formic acid as the mobile phase.
For the PK analysis of P02-113 and P03-97-1, mice were injected i.p. and anesthetized before blood was collected by cardiac puncture at five time points (5 min, 10 min, 30 min, 1 hour and 6 hour). […] Three female C57BL/6 mice, between the ages 6-8 weeks, were used for each compound for each time point, giving a total […]. All mice were injected at the highest maximum tolerated dose (5.2 mg/kg) and plasma was prepared and stored as previously described above.
Pharmacokinetic study. […]. Three mice were used for each time point, with a total of […]. Time points were strategically chosen based on the similar structure of the compounds to TSA, an HDACi, which is known to augment TAP and MHC-I expression in metastatic tumours and to be metabolized at a high rate. The chosen time points were 5 minutes, 10 minutes, 1 hour and 6 hours.

T2 sequence (Q92769 whole entry): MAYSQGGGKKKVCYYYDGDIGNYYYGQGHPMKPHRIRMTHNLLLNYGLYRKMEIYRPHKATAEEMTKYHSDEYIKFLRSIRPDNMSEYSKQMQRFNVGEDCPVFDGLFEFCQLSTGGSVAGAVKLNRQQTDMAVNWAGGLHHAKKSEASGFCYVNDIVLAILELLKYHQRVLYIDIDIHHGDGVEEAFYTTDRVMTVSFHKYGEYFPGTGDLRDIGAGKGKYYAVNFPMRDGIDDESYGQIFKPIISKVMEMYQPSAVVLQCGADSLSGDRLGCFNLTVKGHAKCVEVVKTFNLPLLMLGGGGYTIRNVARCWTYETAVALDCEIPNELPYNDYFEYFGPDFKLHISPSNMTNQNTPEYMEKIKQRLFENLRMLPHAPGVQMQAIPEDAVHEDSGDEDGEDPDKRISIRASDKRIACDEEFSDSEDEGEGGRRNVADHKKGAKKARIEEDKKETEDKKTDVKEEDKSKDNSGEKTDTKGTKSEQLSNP

Compound | effect on HDAC8 activity (HDAC8) | HDAC2 activity (HDAC2) | level in mouse plasma at the 6 hour time point [1] | time at which plasma concentration was half of the 5 minute concentration [1] | half-life in mouse plasma [1] | half-life [1] [min] | concentration at 5 min [1] [ng/mL] | concentration at which HDAC8 inhibition was seen (HDAC8) [µM] | HDAC8 activity at higher concentrations (HDAC8)
CC(C)=CCC[C@H](C)c1ccc(C)cc1O [Curcuphenol, curcuphenol] | selectively inhibits | – | – | – | – | – | – | – | –
CC(C)=CCCCc1ccc(C)cc1O [P02-113] | act as inhibitors to HDAC8; also recorded: slight inhibition at lower concentrations | no significant change in HDAC activity | undetectable levels | 10 min | roughly one | < 5 | 0.4 | ≤ 0.3 | no change in HDAC8 activity
COc1ccc(C(C)CCC=C(C)C)c(O)c1 (stereo not shown) [P03-97-1] | act as inhibitors to HDAC8; also recorded: slight inhibition at lower concentrations | no significant change in HDAC activity | undetectable levels | around 20 minutes | roughly one | 15 | 30 | 0.02 | no change in activity
